Assays:
Procathepsin L = Procathepsin L (Homo sapiens, UniProt P07711); experiment: Inhibition of cathepsin L
Cathepsin B = Cathepsin B (Homo sapiens, UniProt P07858); experiment: Inhibition of cathepsin B
[1] = biological target: Prostaglandin G/H synthase 1 (Homo sapiens, UniProt P23219); experiment: Inhibition of COX1
[2] = biological target: T1, Prostaglandin G/H synthase 2 (Homo sapiens, UniProt P35354); experiment: Inhibition of COX2
T1 sequence (P35354 whole entry): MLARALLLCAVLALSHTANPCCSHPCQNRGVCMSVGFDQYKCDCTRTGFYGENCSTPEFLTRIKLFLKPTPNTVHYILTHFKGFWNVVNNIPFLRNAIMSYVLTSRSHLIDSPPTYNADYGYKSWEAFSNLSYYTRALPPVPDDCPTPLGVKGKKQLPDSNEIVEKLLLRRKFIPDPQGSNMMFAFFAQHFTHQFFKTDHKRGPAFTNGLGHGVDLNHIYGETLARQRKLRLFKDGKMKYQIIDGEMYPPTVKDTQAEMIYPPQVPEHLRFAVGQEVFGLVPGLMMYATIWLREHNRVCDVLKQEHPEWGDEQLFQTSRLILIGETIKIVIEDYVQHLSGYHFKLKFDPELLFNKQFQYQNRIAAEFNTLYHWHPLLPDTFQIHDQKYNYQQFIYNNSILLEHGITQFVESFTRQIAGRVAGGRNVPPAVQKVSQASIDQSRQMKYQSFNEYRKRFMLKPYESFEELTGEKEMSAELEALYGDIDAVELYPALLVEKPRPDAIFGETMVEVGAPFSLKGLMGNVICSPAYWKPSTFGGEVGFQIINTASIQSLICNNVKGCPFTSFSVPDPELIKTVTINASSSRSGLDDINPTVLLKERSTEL

Procathepsin L, sequence (P07711 whole entry): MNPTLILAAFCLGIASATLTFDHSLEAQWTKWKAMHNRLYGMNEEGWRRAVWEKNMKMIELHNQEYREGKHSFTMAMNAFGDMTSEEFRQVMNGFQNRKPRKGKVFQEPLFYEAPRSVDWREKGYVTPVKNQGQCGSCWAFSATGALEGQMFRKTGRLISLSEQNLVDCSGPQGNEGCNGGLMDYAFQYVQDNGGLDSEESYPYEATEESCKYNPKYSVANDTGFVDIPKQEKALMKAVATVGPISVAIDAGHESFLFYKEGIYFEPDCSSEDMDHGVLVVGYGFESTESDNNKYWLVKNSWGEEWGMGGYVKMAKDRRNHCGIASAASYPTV
Prostaglandin G/H synthase 1, sequence (P23219 whole entry): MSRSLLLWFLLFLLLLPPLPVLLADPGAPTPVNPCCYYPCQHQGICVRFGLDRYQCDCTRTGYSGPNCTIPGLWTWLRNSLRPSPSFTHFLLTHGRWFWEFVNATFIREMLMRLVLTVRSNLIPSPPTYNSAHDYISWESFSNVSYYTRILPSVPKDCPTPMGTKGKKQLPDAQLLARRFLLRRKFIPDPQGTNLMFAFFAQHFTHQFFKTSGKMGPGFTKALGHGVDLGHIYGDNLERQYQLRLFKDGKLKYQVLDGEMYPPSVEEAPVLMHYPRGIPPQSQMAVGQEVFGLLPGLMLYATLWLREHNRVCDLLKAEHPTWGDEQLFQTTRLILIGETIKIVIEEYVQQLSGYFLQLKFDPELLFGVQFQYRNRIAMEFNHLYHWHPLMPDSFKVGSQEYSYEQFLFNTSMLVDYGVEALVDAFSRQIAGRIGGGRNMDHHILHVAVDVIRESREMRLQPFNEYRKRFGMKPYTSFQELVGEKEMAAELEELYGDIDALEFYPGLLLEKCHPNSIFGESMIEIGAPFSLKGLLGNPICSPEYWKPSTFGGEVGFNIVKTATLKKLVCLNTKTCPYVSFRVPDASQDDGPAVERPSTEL

| IC50 (Procathepsin L) [µM] | IC50 (Cathepsin B) [µM] | IC50 [1] [µM] | IC50 [2] [µM] | SMILES |
| --- | --- | --- | --- | --- |
| 26 | 5.3 |  |  | N#CCNC(=O)C1CCCCC1CSc1ccccc1 (stereo unspecified) |
| 3.6 | 102 |  |  | N#CCNC(=O)C1CCCCC1CSc1cccc(Cl)c1 (stereo unspecified) |
|  |  | 0.007 | > 10 | Cc1ccc(Nc2c(F)cccc2Cl)c(CC(=O)O)c1 [LUMIRACOXIB] |

Source: ChEMBL document CHEMBL2034973, “Exploring activity cliffs in medicinal chemistry” (J Med Chem, 2012)
